What was measured:
[1] = tested on: guinea pig skin; test: Cutaneous phototoxicity after systemic (I.P.) administration and UVA; type: in vivo, Guinea pigs; conditions: 10 mg/kg I.P., graded 24 hours post light
Description: (§1) HPD, DHE, hematoporphyrin and protoporphyrin were provided by Dr. Thomas J. Dougherty, Roswell Park Memorial Institute, Buffalo, NY. Hydroxyvinyldeuteroporphyrin was obtained from Porphyrin Products, Salt Lake City, UT.
Guinea pigs were treated systemically (I.P.) with the various porphyrins, each at a dose of 10 mg/kg. Animals were then irradiated with UVA (20 J/cm^2), either at 6 hours or 24 hours post drug administration. Erythema was graded at 24 hours post light treatment.

[2] = tested on: skin cancers; conditions: cited from earlier work
[3] = tested on: psoriasis; conditions: oral methoxysalen plus long-wave ultraviolet light (PUVA); cited from earlier work
[4] = tested on: guinea pig skin; test: Cutaneous phototoxicity after intradermal administration and UVA (minimum phototoxic dose); type: in vivo; conditions: intradermal 5-500 μg/0.1 ml; UVA 20 J/cm^2 6 hours post injection
Description: as §1
(§2) Drugs were administered intradermally at doses ranging from 5-500 μg/0.1 ml. Sites were then treated with UVA (20 J/cm^2) 6 hours post drug injection.

[5] = tested on: malignant cells; conditions: HPD enriched for DHE, administered systemically; cited from earlier work
[6] = tested on: guinea pig skin; test: Drug/UVA dosimetry with intradermal HPD and DHE; type: in vivo
Description: as §1, §2
Additional studies were done with intradermal HPD and DHE to study the drug/UVA dosimetry.

[7] = tested on: epidermal DNA synthesis; test: Effect of topical DHE plus UVA on epidermal DNA synthesis in vivo; set-up: species or system Mini-pigs
Description: The topical activity of DHE was evaluated in vivo in a mini-pig model.
Mini-pigs were obtained from Charles River Laboratories, Inc. (Wilmington, MA). Drug preparations were applied to small areas of dorsal skin (ca 1 inch square) according to the selected application schedules. Six hours following the last drug application, tritiated thymidine was injected into the drug treatment sites for autoradiographic assessment of epidermal proliferation as measured by epidermal labeling index. Weinstein & Van Scott, (1965) J. Invest. Derm. 44:413.
DHE was acid precipitated from a Photofrin II solution by adjusting the pH to 3.5. The precipitated DHA was washed extensively with distilled water until the pH of the filtrate reached 6.0. The DHE powder was vacuum dried, reconstituted in distilled water, and the pH adjusted to 7.0. Aqueous DHE was then mixed with isopropanol and Azone. […] This formulation was applied to selected areas of mini-pig skin approximately 6 hours before irradiation with UVA. Epidermal DNA synthesis was assayed as described above. At 0, 24, 48, and 72 hours post-irradiation, the animals were injected at the selected sites with isotopic precursors (tritiated thymidine). The animals were biopsied one hour after isotopic injection.

With `CC1=C(CCC(=O)O)c2cc3[nH]c(cc4nc(cc5[nH]c(cc1n2)c(C)c5C(C)O)C(C)=C4C(C)O)c(C)c3CCC(=O)O` (stereo not shown) [hematoporphyrin] the erythema response ([1]; UVA 20 J/cm^2 at 6 hours) was “mild response”.
For `COc1c2occc2cc2ccc(=O)oc12` [methoxysalen], the “skin cancers in patients following PUVA” value [2] is given as “increased pattern of skin cancers” and the “clinical effectiveness in psoriasis” value [3] is given as “relatively effective for the majority of patients”.
For `C=CC1=C(C)c2cc3[nH]c(cc4nc(cc5[nH]c(cc1n2)c(C)c5CCC(=O)O)C(CCC(=O)O)=C4C)c(C)c3C=C` [protoporphyrin], the erythema response ([1]; UVA 20 J/cm^2 at 6 hours) was “No response”.
In the case of Hydroxyvinyldeuteroporphyrin, the minimum phototoxic dose [4] is reported as > 500 µg and the erythema response ([1]; UVA 20 J/cm^2 at 6 hours) is reported as “No response”.
For dihematoporphyrin ether [DHE], the “phototoxicity toward malignant cells” value [5] is given as “phototoxic properties toward malignant cells”, the “erythema, UVA at 24 hours vs 6 hours post injection” value ([6]; intradermal) is given as “more pronounced erythema” and the “UVA dose effective in producing erythema” value ([6]; intradermal DHE 5 μg/cm^2) is given as 1 J/cm^2. For the same molecule, the “erythema response compared with HPD” value ([6]; intradermal DHE 5 μg/cm^2, comparable treatments) was “slightly greater than with comparable treatments with HPD”, the “area of erythema, UVA at 24 hours vs 6 hours post injection” value ([6]; intradermal, local drug diffusion from injection site) was “larger area of erythema” and the minimum phototoxic dose [4] was 5 µg. For the same molecule, the “time of maximum effect post light treatment” value ([7]; 1% DHE topical plus UVA, autoradiographically and clinically) was 72 h, the “inhibition of DNA synthesis compared to vehicle control plus UVA” value ([7]; 1% DHE topical, 48% isopropanol, 4% Azone, 48% water, 5-10 applications plus UVA, FIG. 1) was “significant inhibition of DNA synthesis” and the erythema response ([1]; UVA 20 J/cm^2 at 6 hours) was “significant response”. The erythema response ([1]; UVA 20 J/cm^2 at 24 hours, compared with 6 hours for HPD and DHE) was “greater”.
